The values below come from ChEMBL document CHEMBL4627385, “Cytotoxic Monoterpenoid Indole Alkaloids from Tabernaemontana corymbosa as Potent Autophagy Inhibitors by the Attenuation of Lysosomal Acidification” (J Nat Prod, 2020).

The source made the active and inactive calls. No cut-off for these calls is given here.

What all share (assay type): functional, cell-based
The test system of experiment [1] is HeLa. In words: Inhibition of lysosomal acidification in human HeLa cells incubated for 3 hrs by LysoTracker Red DND-99 staining based array scan method.
Another experiment has as its system SW480. In words: Cytotoxicity against human SW480 cells assessed as reduction in cell viability incubated for 48hrs by MTT assay. The following applies: SW480, 48 h. In general terms: Formazan colour is commonly taken as a measure of viable cells.
A further experiment deals with SMMC-7721. As to the kind of experiment: Cytotoxicity against human SMMC7721 cells assessed as reduction in cell viability incubated for 48hrs by MTT assay. Particulars: SMMC-7721, 48 h.
The next experiment relates to MCF7. As to the kind of experiment: Cytotoxicity against human MCF7 cells assessed as reduction in cell viability incubated for 48hrs by MTT assay. The following applies: MCF7, 48 h.
The next experiment concerns HL-60. As to the kind of experiment: Cytotoxicity against human HL60 cells assessed as reduction in cell viability incubated for 48hrs by MTT assay. Particulars: HL-60, 48 h.
The next experiment has as its system A549. In words: Cytotoxicity against human A549 cells assessed as reduction in cell viability incubated for 48hrs by MTT assay. Particulars: A549, 48 h.
In experiment [2] the test system is HeLa. As to the kind of experiment: Inhibition of autophagic flux in human HeLa cells assessed as increase in LC3-2 to LC3-1 ratio at 20 uM by Western blot analysis.
The test system of experiment [3] is HeLa. As to the kind of experiment: Inhibition of autophagic flux in human HeLa cells assessed as p62 protein expression at 20 uM by Western blot analysis. In general terms: In western blotting, separated proteins are transferred to a membrane and probed.
The test system of experiment [4] is HeLa. In words: Inhibition of autophagic flux in human HeLa cells assessed as increase in LC3-2 to LC3-1 ratio at 20 uM in presence of Bafilomycin A1 by Western blot analysis.
Experiment [5] deals with HeLa. In words: Inhibition of autophagic flux in human HeLa cells harboring GFP-LC3 assessed as increase in LC3 dot accumulation incubated for 12 hrs by confocal microscopic method.
For experiment [6], the system named is HeLa. In words: Inhibition of autophagic flux in human HeLa cells assessed as p62 protein expression at 50 nM by Western blot analysis.
The subject of experiment [7] is HeLa. As to the kind of experiment: Inhibition of autophagic flux in human HeLa cells assessed as inhibition of lysosomal acidification at 50 nM by Western blot analysis.
Experiment [8] has as its system HeLa. In words: Inhibition of autophagic flux in human HeLa cells assessed as increase in LC3-2 accumulation at 50 nM by Western blot analysis.
Experiment [9] concerns HeLa. In words: Inhibition of autophagic flux in human HeLa cells assessed as increase in LC3-2 to LC3-1 ratio at 50 nM by Western blot analysis.

In general, EC50 refers to the concentration at which the effect is half-maximal. A low value points to an effect from little substance. `CC[C@H]1C[C@H]2C[C@@]3(C(=O)OC)c4[nH]c5cc(OC)ccc5c4CC[N@@](C2CC(C)=O)[C@@H]13` (stereo partly drawn) showed an EC50 in the experiment on HeLa [1] of over 40 µM.
For orientation: IC50 means the concentration that gives 50% inhibition. With `C/C=C1/CN2COC[C@]3(C(=O)OC)[C@@H]1C[C@@H](c1c(OC)ccc4c5c([nH]c14)[C@]1(C(=O)OC)C[C@H]4C[C@H](CC)[C@@H]1N(CC5)C4=O)c1[nH]c4ccccc4c1C[C@H]23`, in the experiment on HeLa [1], the EC50 is over 40 µM. Besides, the concentration for half-maximal inhibition (IC50) in the experiment with SW480, with SMMC-7721, with MCF7, with HL-60 and in the experiment with A549 was over 10 µM each time.
In the experiment on HeLa [1], `C/C=C1/CN(C)[C@H]2Cc3c([nH]c4ccccc34)[C@H](OC)C[C@H]1[C@]2(CO)C(=O)OC` came in with an EC50 of over 40 µM. Moreover, the half-maximal inhibitory concentration (IC50) in the experiment on SW480, with SMMC-7721, in the experiment with MCF7, in the experiment with HL-60 and in the experiment with A549 was over 10 µM in each case.
In the case of `COC(=O)[C@@]12C[C@@H]3C[C@@H]([C@H](C)O)C1[N@@](CCc1c2[nH]c2ccccc12)C3`, the EC50 with HeLa [1] is over 40 µM.
In turn, `COC(=O)[C@@]12CC3C[C@H]([C@H](C)O)[C@@H]1N(C3)Cn1c2c(C=O)c2ccccc21` registered an EC50 in the experiment on HeLa [1] of over 40 µM. Further, the IC50 in the experiment with SW480, in the experiment on SMMC-7721, in the experiment with MCF7, with HL-60 and in the experiment on A549 was over 10 µM throughout.
`C/C=C1/CN(C)[C@H]2Cc3c([nH]c4ccccc34)[C@H](c3c(OC)ccc4c3N[C@]3(OC)[C@]5(C(=O)OC)C[C@H]6C[C@H](CC)[C@@H]5N5CC[C@@]43O[C@H]65)C[C@H]1[C@]2(CO)C(=O)OC` displayed a concentration for a half-maximal effect (EC50) in the experiment with HeLa [1] of over 40 µM. For the same molecule, the IC50 in the experiment with SW480, with SMMC-7721, with MCF7, in the experiment with HL-60 and with A549 was over 10 µM each time.
In the experiment on HeLa [1], `CC[C@H]1C[C@H]2C[N@]3CCc4c([nH]c5ccc(OC)cc45)[C@](C(=O)OC)(C2)[C@H]13` displayed an EC50 of over 40 µM.
Same read-out and setting: the same measure for `CC[C@H]1C[C@@H]2CN3CCc4c([nH]c5cc(OC)ccc45)[C@](C(=O)OC)(C2)[C@H]13` [ISOVOACANGINE]: over 40 µM; for `COC(=O)[C@@]12C[C@@H]3CC([C@H](C)O)[C@@H]1[N@@](CC[C@]1(O)C2=Nc2ccc(OC)cc21)C3` (stereo partly drawn): over 40 µM.
For the molecule `C/C=C1/CN(C)[C@H]2Cc3c([nH]c4ccccc34)[C@H](c3cc4c(cc3OC)N=C3[C@]5(C(=O)OC)C[C@]6(C(=O)OC)C[C@H](CC)[C@@H]5N(CC[C@@]34O)C6)C[C@H]1[C@]2(CO)C(=O)OC`, in the experiment on HeLa [1], a half-maximal response (EC50) required 25.7 µM and the inhibition entry was “Dose-dependent effect”.
Consider `C/C=C1/CN2COC[C@@]3(C(=O)OC)[C@@H]1C[C@@H](c1c(OC)ccc4c5c([nH]c14)[C@]1(C(=O)OC)C[C@@H]4C[C@H](CC)[C@@H]1N(CC5)C4)c1[nH]c4ccccc4c1C[C@H]23`, for which, in the experiment with HeLa [1], the EC50 was over 40 µM.
The molecule `C/C=C1/CN(C)[C@H]2Cc3c([nH]c4ccccc34)[C@H](c3c(OC)ccc4c3N=C3[C@]5(C(=O)OC)C[C@@H]6C[C@H](CC)[C@@H]5N(CC[C@]34O)C6)C[C@H]1[C@]2(CO)C(=O)OC` showed an EC50 with HeLa [1] of over 40 µM.
`CC[C@H]1C[C@H]2CN3CC[C@@]4(O)C(=Nc5cc(OC)ccc54)[C@](C(=O)OC)(C2)[C@H]13` returned an EC50 in the experiment on HeLa [1] of over 40 µM. The half-inhibitory concentration (IC50) in the experiment on SW480 is 7.5 µM; with SMMC-7721, over 10 µM; with MCF7, over 10 µM; in the experiment on HL-60 it was over 10 µM; in the experiment on A549, over 10 µM.
In turn, `C/C=C1/CN2COC[C@]3(C(=O)OC)[C@@H]1C[C@@H](c1c(OC)ccc4c1N=C1[C@]5(C(=O)OC)C[C@@H]6C[C@H](CC)[C@@H]5N(CC[C@]14O)C6)c1[nH]c4ccccc4c1C[C@H]23` displayed an EC50 with HeLa [1] of over 40 µM.
As to `COC(=O)C[C@@H]1[C@@H]2C[C@H]([C@H](C)O)[C@@H]3N1CCc1c([nH]c4ccc(OC)cc14)[C@]3(C(=O)OC)C2`, the EC50 with HeLa [1] is over 40 µM. Further, the IC50 in the experiment on SW480, in the experiment on SMMC-7721, with MCF7, with HL-60 and in the experiment with A549 was over 10 µM each time.
In the experiment on HeLa [1], `CCN(CC)CCCC(C)Nc1ccnc2cc(Cl)ccc12` (stereo not drawn) [CHLOROQUINE] displayed an EC50 of 19.6 µM.
In the experiment with HeLa [1], `C/C=C1/CN(C)[C@H]2Cc3c([nH]c4ccccc34)[C@H](c3c(OC)ccc4c5c([nH]c34)[C@]3(C(=O)OC)C[C@H]4C[C@H](CC)[C@@H]3N(C4)C[C@H]5OC)C[C@H]1[C@]2(CO)C(=O)OC` registered an EC50 of over 40 µM. In addition, the 50% inhibitory concentration (IC50) with SW480, in the experiment on SMMC-7721, with MCF7, in the experiment with HL-60 and in the experiment on A549 was over 10 µM in each case.
For `CC[C@H]1C[C@@H]2CN3CCc4c([nH]c5cc(OC)c([C@@H]6C[C@H]7C(C(=O)OC)[C@H](Cc8c6[nH]c6ccccc86)N(C)C[C@H]7CC)cc45)[C@](C(=O)OC)(C2)[C@H]13` (stereo partly drawn), in the experiment on HeLa [1], the 50% effective concentration (EC50) was found to be 16 µM and the inhibition entry was “Dose-dependent effect”.
In the experiment with HeLa [1], `CC[C@H]1C[C@H]2C[C@@]3(C(=O)OC)c4[nH]c5ccccc5c4CC[N@@](C2CC(C)=O)[C@@H]13` (stereo partly drawn) gave an EC50 of over 40 µM.
On to `CC[C@H]1C[C@H]2CN3CCc4c([nH]c5cc(OC)c([C@@H]6C[C@H]7[C@@]8(C(=O)OC)CO[C@H](N(C)[C@H]8Cc8c6[nH]c6ccccc86)[C@@]76O[C@H]6C)cc45)[C@](C(=O)OC)(C2)[C@H]13`, for which the inhibition entry in the experiment on HeLa [2], in the experiment with HeLa [3], in the experiment with HeLa [4] and in the experiment on HeLa [5] was “Active” throughout. In the experiment with HeLa [1], this molecule had an EC50 of 20.2 µM. For the same molecule, the inhibition entry with HeLa [1] was “Dose-dependent effect”. Also, the half-maximal inhibitory concentration (IC50) was over 10 µM in the experiment with SW480; under 10 µM with SMMC-7721; under 10 µM with MCF7; under 10 µM in the experiment on HL-60; under 10 µM in the experiment on A549.
Take `COC(=O)[C@@]12C[C@@H]3C[C@H]([C@H](C)O)C1[N@@](CCc1c2[nH]c2ccccc12)C3`: in the experiment on HeLa [1], the EC50 was over 40 µM.
Take `CC[C@H]1C[C@@H]2CN3CCc4c([nH]c5ccccc45)[C@](C(=O)OC)(C2)[C@H]13` [CORONARIDINE]: the EC50 with HeLa [1] was over 40 µM.
As for `CC[C@H]1C[C@]2(C(=O)OC)CN3CC[C@@]4(O)C(=Nc5cc(OC)c([C@@H]6C[C@H]7[C@@]8(C(=O)OC)CO[C@H](N(C)[C@H]8Cc8c6[nH]c6ccccc86)[C@@]76O[C@H]6C)cc54)[C@](C(=O)OC)(C2)[C@H]13`, the inhibition result with HeLa [2], with HeLa [3], with HeLa [4] and in the experiment on HeLa [5] was “Active” in each case. This molecule yielded an EC50 with HeLa [1] of 12.9 µM. For the same molecule, the inhibition result in the experiment with HeLa [1] is “Dose-dependent effect”.
In the experiment with HeLa [1], `COC(=O)C[C@@H]1[C@@H]2C[C@H]([C@H](C)O)[C@@H]3N1CCc1c([nH]c4cc(OC)ccc14)[C@]3(C(=O)OC)C2` came in with an EC50 of over 40 µM. Further, the IC50 in the experiment with SW480, with SMMC-7721, with MCF7, in the experiment on HL-60 and in the experiment on A549 was over 10 µM each time.
As for `CO/C1=C\C(C)=C\[C@@H](C)[C@@H](O)[C@@H](C)C/C(C)=C/C=C/[C@H](OC)[C@@H]([C@@H](C)[C@@H](O)[C@H](C)[C@@]2(O)C[C@@H](O)[C@H](C)[C@@H](C(C)C)O2)OC1=O`, the inhibition entry with HeLa [6], in the experiment on HeLa [7], in the experiment with HeLa [8] and in the experiment with HeLa [9] was “Active” each time.
As for `C/C=C1/CN2COC[C@@]3(C(=O)OC)[C@@H]1C[C@H](c1cc4c5c([nH]c4cc1OC)[C@]1(C(=O)OC)C[C@@H]4C[C@H](CC)[C@@H]1N(CC5)C4)c1[nH]c4ccccc4c1C[C@H]23`, the response with HeLa [1] was half-maximal at 29.8 µM (EC50). Besides, the inhibition entry in the experiment on HeLa [1] is “Dose-dependent effect”. Besides, the concentration for half-maximal inhibition (IC50) amounted to 3.5 µM in the experiment on SW480; 4.7 µM in the experiment with SMMC-7721; 4 µM in the experiment on MCF7; 3.2 µM in the experiment on HL-60; 8.6 µM with A549.
As to `COC(=O)[C@@]12C[C@@H]3CC([C@H](C)O)[C@@H]1[N@@](CC[C@]1(O)C2=Nc2ccccc21)C3` (stereo partly drawn), the EC50 with HeLa [1] was over 40 µM.
